Measurements from patent US6492335B1, “Glycoconjugates from modified camptothecin derivatives (20-O-linkage)” (Bayer Aktiengesellschaft, priority 1996, dated 2002).
Where “and” joins values, the source holds several entries; their conditions need not be identical. Equal values may be shown once. Where a name gives a salt, the structure may show the parent alone. Read-outs that look alike come from different tables or passages of the source.

Experiments:
B16F10 = assay: Growth inhibition test (MTT) for cytotoxic properties; type: cell-based, mouse
Procedure: (§1) The human large intestine cell lines SW 480 and HT 29 (ATCC No. CCL 228 and HBT 38) and the mouse melanoma cell line B16F10 were grown in Roux dishes in RPMI 1640 medium with addition of 10% FCS. They were then trypsinized and taken up in RPMI plus 10% FCS to a cell count of 50,000 cells/ml. 100 μl of cell suspension/well were added to a 96 microwell plate and incubated for 1 day at 37° C. in a CO2 incubator. A further 100 μl of RPMI Medium and 1 μl of DMSO containing the test substances were then added. The growth was checked after day 3 and day 6. To this end, 40 μl of MTT solution (3-(4,5-dimethylthiazol-2-yl)-2,5-diphenyltetrazoline bromide) having a starting concentration of 5 mg/ml of H2O were added to each microwell. Incubation was carried out for 5 hours in a CO2 incubator at 37° C. The medium was then aspirated and 100 μl of i-propanol/well were added. After shaking for 30 min with 100 μl of H2O, the extinction was measured at 540 nm using a Titertek Multiscan MCC/340 (Flow).
(§2) The cytotoxic action is indicated in Table 1 as the IC50 value in each case for the SW 480 and HT 29 and B16F10 cell lines: […]

[1] = system: large-cell lung carcinoma LXFL 529; assay: In vivo inhibition of tumour growth in the nude mouse model; details: for Survival time: individual mice
Procedure: (§3) For all in vivo experiments for investigation of the inhibition of tumour growth athymic nude mice (NMRI nu/nu strain) were used. The selected large-cell lung carcinoma LXFL 529 was grown by serial passage in nude mice. The human origin of the tumour was confirmed by isoenzymatic and immunohistochemical methods.
(§4) The tumour was implanted subcutaneously into both flanks of 6 to 8 week old nu/nu nude mice. The treatment was started, depending on the doubling time, as soon as the tumours had reached a diameter of 5-7 mm. The mice were assigned to the treatment group and the control group (5 mice per group with 8-10 assessable tumours) by randomization. The individual tumours of the control group all grew progessively.
(§5) The size of the tumours was measured in two dimensions by means of a slide gauge. The tumour volume, which correlated well with the cell count, was then used for all evaluations. The volume was calculated according to the formula “length×breadth×breadth/2” ([a×b^2]/2, a and b represent two diameters at right angles).
(§6) The values of the relative tumour volume (RTV) were calculated for each individual tumour by dividing the tumour size on day X with the tumour size on day 0 (at the time of randomization). The mean values of the RTV were then used for the further evaluation.
(§7) The inhibition of the increase of the tumour volume (tumour volume of the test group/control group, T/C, in per cent) was the final measured value.
(§8) The administration of the compounds was carried out intraperitoneally (i.p.) on day 1, 2 and 3 after randomization.

[2] = as above; details: NMRI nu/nu, mouse, in vivo, ip; nude mice, i.p. on day 1, 2 and 3; read-out: Maximum tolerable dose (MTD)
Procedure: as §3, §4, §5, §6, §7, §8

HT 29 = assay: Growth inhibition test (MTT) for cytotoxic properties; type: cell-based, human
Procedure: as §1, §2

SW 480 = assay: as above; type: cell-based, human
Procedure: as §1, §2

[3] = system: mouse bone marrow stem cells; assay: Inhibition of the CSF-induced proliferation of mouse bone marrow stem cells (colony formation); details: recombinant murine GM-CSF, 7 days
Procedure: Bone marrow cells were washed out of mice femurs. 10^5 cells were incubated at 37° C. and 7% CO2 in McCoy 5A medium (0.3% agar) together with recombinant murine GM-CSF (Genzyme; stem cell colony formation) and the substances (10^−4 to 100 μg/ml). 7 days later, the colonies (<50 cells) and clusters (17-50 cells) were counted.

[4] = B16-F10, mouse melanoma cell line B16F10, MTT, read-out: IC50 B16F10
[5] = 6.25 mg/kg/day i.p. on day 1, 2 and 3
[6] = 12.5 mg/kg/day (MTD) i.p. on day 1, 2 and 3
[7] = human large intestine cell line HT 29, MTT, read-out: IC50 HT 29
[8] = SW480, human large intestine cell line SW 480, MTT, read-out: IC50 SW 480

Compound	IC50 (B16F10; [4]) [nM]	IC50 (HT 29; [7]) [nM]	IC50 (SW 480; [8]) [nM]	also measured
CCc1c2c(nc3ccccc13)-c1cc3c(c(=O)n1C2)COC(=O)[C@@]3(CC)OC(=O)[C@H](C)NC(=O)[C@H](CCCCNC(=S)Nc1ccc(OC2O[C@@H](C)[C@@H](O)[C@@H](OC)[C@@H]2O)cc1)NC(=S)Nc1ccc(OC2O[C@@H](C)[C@@H](O)[C@@H](OC)[C@@H]2O)cc1 (stereo partly drawn) [Example 1.1, 20(S)-7-Ethyl-20-O-{N^α, N^ε-bis-[O-(3-O-methyl-β-L-fucopyranosyl)-4-hydroxy-phenylamino-thiocarbony]-lysyl-alanyl}-camptothecin]	30	10	15	Relative body weight on day 7 [1, 5]: 98 % of day 0; Relative tumour volume on day 14 [1, 5]: 32 % of day 0; Survival time [1, 5]: >21 days (4×) and 13 days; Relative body weight on day 7 [1, 6]: 95 % of day 0; Relative tumour volume on day 14 [1, 6]: 0.1 % of day 0; Survival time [1, 6]: >21 days; MTD at 3 days [2]: 12.5 mg/kg/day
CCC1(OC(=O)[C@H](C)NC(=O)[C@H](CCCCNC(=S)Nc2ccc(OC3O[C@@H](C)[C@@H](O)[C@@H](OC)[C@@H]3O)cc2)NC(=S)Nc2ccc(OC3O[C@@H](C)[C@@H](O)[C@@H](OC)[C@@H]3O)cc2)C(=O)OCc2c1cc1n(c2=O)Cc2cc3cc4c(cc3nc2-1)OCO4 (stereo partly drawn) [Example 2.1, 20(R,S)-10,11-Methylenedioxy-20-O-{N^α,N^ε-bis-[O-(3-O-methyl-β-L-fucopyranosyl)-4-hydroxy-phenylamino-thiocarbonyl]-lysyl-alanyl}-camptothecin]	15	5	7	–
CC[C@@]1(OC(=O)[C@H](CC(C)C)NC(=O)[C@H](CCCCN)NC(=S)Nc2ccc(O[C@H]3O[C@@H](C)[C@@H](O)[C@@H](OC)[C@@H]3O)cc2)C(=O)OCc2c1cc1n(c2=O)Cc2c-1nc1cc3c(cc1c2CN1CCN(C)CC1)OCCO3 [Example 5.1, 20(S)-7-[4-(Methylpiperazino)methy]-10,11-(ethylenedioxy)-20-O-{N^α-[O-(3-O-methyl-β-L-fucopyranosyl)4-hydroxy-phenylamino-thiocarbonyl-lysyl-leucyl}-camptothecin, hydrochloride]	200	40	70	–
CCC1(OC(=O)C(C)NC(=O)[C@H](CCCCN)NC(=S)Nc2ccc(OC3OC(C)C(O)C(OCC(=O)O)C3O)cc2)C(=O)OCc2c1cc1n(c2=O)Cc2cc3cc4c(cc3nc2-1)OCO4 (stereo partly drawn) [Example 2.3, 20(S)-10,11-Methylenedioxy-20-O-{N^α-[O-(3-O-carboxymethyl-β-L-fucopyranosyl)-4-hydroxy-phenylamino-thiocarbonyl]-lysyl-alanyl}-camptothecin, hydrochloride]	9	3	6	–
CC[C@@]1(O)C(=O)OCc2c1cc1n(c2=O)Cc2cc3c(N)cccc3nc2-1 [9-amino-camptothecin]	–	–	–	IC50, inhibition of the CSF-induced proliferation of mouse bone marrow stem cells [3]: 1 ng/mL
CCc1c2c(nc3ccccc13)-c1cc3c(c(=O)n1C2)COC(=O)[C@]3(O)CC [7-ethyl-camptothecin]	–	–	–	IC50, inhibition of the CSF-induced proliferation of mouse bone marrow stem cells [3]: 0.002 ng/mL
CC[C@@]1(OC(=O)[C@H](C)NC(=O)[C@H](CCCCNC(=S)Nc2ccc(OC3O[C@@H](C)[C@@H](O)[C@@H](OC)[C@@H]3O)cc2)NC(=S)Nc2ccc(OC3O[C@@H](C)[C@@H](O)[C@@H](OC)[C@@H]3O)cc2)C(=O)OCc2c1cc1n(c2=O)Cc2c-1nc1ccccc1c2COC(=O)[C@H](C)NC(=O)[C@H](CCCCNC(=S)Nc1ccc(OC2O[C@@H](C)[C@@H](O)[C@@H](OC)[C@@H]2O)cc1)NC(=S)Nc1ccc(OC2O[C@@H](C)[C@@H](O)[C@@H](OC)[C@@H]2O)cc1 (stereo partly drawn) [Example 4.1, 20(S)-7-{N^α,N^ε-bis-[O-(3-O-Methyl-β-L-fucopyranosyl)-4-hydroxy-phenylamino-thiocarbonylmino-thiocarbonyl]-lysyl-alanyloxymethyl}-20-O-{N^α,N^ε-bis-[O-(3-O-methyl-β-L-fucopyranosyl)-4-hydroxy-phenylamino-thiocarbonyl]-lysyl-alanyl}-camptothecin]	–	–	–	IC50 (B16F10; Mus musculus, B16-F10, read-out: IC50 B16F10): 300 nM; IC50 (HT 29; Homo sapiens, HT-29, read-out: IC50 HT 29): 40 nM; IC50 (SW 480; Homo sapiens, SW480, read-out: IC50 SW 480): 40 nM
CCc1c2c(nc3ccccc13)-c1cc3c(c(=O)n1C2)COC(=O)C3(CC)OC(=O)[C@@H](NC(=O)[C@H](CCCCN)NC(=S)Nc1ccc(OC2OC(C)C(O)C(OC)C2O)cc1)C(C)C (stereo partly drawn) [Example 1.5, 7-Ethyl-20-O-{N^α-[O-(3-O-methyl-β-L-fucopyranosyl)-4-hydroxyl-phenyl-amino-thiocarbonyl]-lysyl-valyl)-camptothecin, hydrochloride]	300	60	100	–
CC[C@@]1(OC(=O)[C@H](CC(C)C)NC(=O)[C@H](CCCCN)NC(=S)Nc2ccc(O[C@H]3O[C@@H](C)[C@@H](O)[C@@H](OC)[C@@H]3O)cc2)C(=O)OCc2c1cc1n(c2=O)Cc2cc3cc4c(cc3nc2-1)OCO4 [Example 2.4, 20(S)-10,11-Methylenedioxy-20-O-{N^α-[O-(3-O-methyl-β-L-fucopyranosyl)-4-hydroxy-phenylamino-thiocarbonyl]-lysyl-leucyl}-camptothecin, hydrochloride]	10	3	5	–
CC[C@@]1(OC(=O)[C@H](C)NC(=O)[C@H](CCCCNC(=S)Nc2ccc(OC3O[C@@H](C)[C@@H](O)[C@@H](OC)[C@@H]3O)cc2)NC(=S)Nc2ccc(OC3O[C@@H](C)[C@@H](O)[C@@H](OC)[C@@H]3O)cc2)C(=O)OCc2c1cc1n(c2=O)Cc2cc3c(N)cccc3nc2-1 (stereo partly drawn) [Example 3.1, 20(S)-9-Amino-20-O-{N^α,N^ε-bis-[O-(3-O-methyl-β-L-fucopyranosyl)4-hydroxy-phenylamino-thiocarbonyl]-lysyl-alanyl}-camptothecin]	150	8	10	–
CCc1c2c(nc3ccc(O)cc13)-c1cc3c(c(=O)n1C2)COC(=O)C3(CC)OC(=O)[C@@H](NC(=O)[C@H](CCCCN)NC(=S)Nc1ccc(OC2OC(C)C(O)C(OC)C2O)cc1)C(C)C (stereo partly drawn) [Example 6.1, 7-Ethyl-10-hydroxy-20-O-{N^α-[O-methyl-β-L-fucopyranosyl)-4-hydroxy-phenylamino-thiocarbonyl]-lysyl-valyl}-camptothecin, hydrochloride]	3000	200	150	–
